# Measurements reported in patent US6448260B2, “Endothelin receptor antagonists” (SmithKline Beecham Corporation, priority 1991, dated 2002).
# Structures can show the parent of a compound that is named as a salt.
row,melting point,Structure (SMILES)
1,231 to 232 °C,"COc1ccc([C@H]2c3ccccc3[C@@H](c3ccc(NC(C)=O)cc3)[C@H]2C(=O)O)cc1 (racemic) [Example 23, (1RS, 2RS, 3SR)-1-(4-Acetamidophenyl)-3-(4-methoxyphenyl)indane-2-carboxylic acid]"
2,236 to 239 °C,"COc1ccc([C@@H]2c3cc(O)ccc3[C@H](c3cc4c(cc3OC)OCO4)[C@H]2C(=O)O)cc1 (racemic) [Example 82, (1RS, 2SR, 3RS)-5-Hydroxy-3-(4-methoxyphenyl)-1-(2-methoxy-4,5-methylenedioxyphenyl)indane-2-carboxylic acid]"
3,157 to 158 °C,"CCCCOc1ccc2c(c1)[C@H](C1(OC)C=CC=CC1)[C@@H](C(=O)O)[C@@H]2c1ccc2c(c1)OCO2 (mixture of isomers) [Example 107, (1RS, 2SR, 3RS)-5-(But-1-yloxy)-3-(1-methoxyphenyl)-1-(3,4-methylenedioxyphenyl)indane-2-carboxylic acid]"
4,183 to 185 °C,"CCCOc1ccc2c(c1)[C@H](c1ccc(OC(C)C)cc1OCC(=O)O)[C@H](C(=O)O)[C@@H]2c1ccc2c(c1)OCO2 (racemic) [Example 95, (1RS, 2RS, 3RS)-3-(2-Carboxymethoxy-4-isopropyloxyphenyl)-1-(3,4-methylenedioxyphenyl)-5-(prop-1-yloxy)indane-2-carboxylic acid]"
5,184 to 186 °C,"CCCOc1ccc2c(c1)[C@H](c1ccc(OC)cc1OCC(=O)O)[C@@H](CNS(=O)(=O)C(F)(F)F)[C@@H]2c1ccc2c(c1)OCO2 (racemic) [Example 140, (1RS, 2SR, 3RS)-2-Trifluoromethylsulfonamidomethyl-3-(2-carboxymethoxy-4-methoxyphenyl)-1-(3,4-methylenedioxyphenyl)-5-(prop-1-yloxy)indane]"
6,85 to 89 °C,"CCCOc1ccc2c(c1)[C@H](c1ccc(OC)cc1OCC(C)C)[C@@H](C(=O)O)[C@@H]2c1ccc2c(c1)OCO2 (racemic) [Example 43, (1RS, 2SR, 3RS)-3-[4-Methoxy-2-(2-methylprop-1-yloxy)phenyl]-1-(3,4-methylenedioxyphenyl)-5-(prop-1-yloxy)indane-2-carboxylic acid]"
7,138 to 140 °C,"COc1ccc([C@@H]2c3cc(O)ccc3[C@H](c3c[nH]c4ccccc34)[C@H]2C(=O)O)cc1 (racemic) [Example 109, (1RS, 2SR, 3RS)-5-Hydroxy-1-(3-indolyl)-3-(4-methoxyphenyl)indane-2-carboxylic acid]"
8,127 to 129 °C,"C=CCCOc1ccc2c(c1)[C@@H](c1ccc(OC)cc1)[C@H](C(=O)O)[C@@H]2c1ccc2c(c1)OCO2 (racemic) [Example 106, (1RS, 2SR, 3RS)-5-(3-Buten-1-yloxy)-3-(4-methoxyphenyl)-1-(3,4-methylenedioxyphenyl)indane-2-carboxylic acid]"
9,169 to 170 °C,"CCCOc1ccc2c(c1)[C@H](c1ccccc1OCC(=O)O)[C@@H](C(=O)O)[C@@H]2c1ccc2c(c1)OCO2 (racemic) [Example 37, (1 RS, 2SR, 3RS)-3-(2-Carboxymethoxyphenyl)-1-(3,4-methylenedioxyphenyl)-5-(prop-1-yloxy)indane-2-carboxylic acid]"
10,100 to 104 °C,"O=C(O)[C@H]1[C@H](c2ccc3c(c2)OCO3)c2ccc(O)cc2[C@@H]1c1ccc(OC(F)(F)F)cc1 (racemic) [Example 108, (1RS, 2RS, 3SR)-5-Hydroxy-1-(3,4-methylenedioxyphenyl)-3-(4-trifluoromethoxyphenyl)indane-2-carboxylic acid]"
11,75 to 79 °C,"CCCOc1ccc2c(c1)[C@H](c1ccc(OC)cc1OC(C)C)[C@@H](C(=O)O)[C@@H]2c1ccc2c(c1)OCO2 (racemic) [Example 42, (1RS, 2SR, 3RS)-3-[4-Methoxy-2-(prop-2-yloxy)phenyl]-1-(3,4-methylenedioxyphenyl)-5-(prop-1-yloxy)indane-2-carboxylic acid]"
12,126 to 128 °C,"COc1ccc([C@H]2c3ccccc3[C@@H](c3ccc(OC)c(OC)c3)[C@@H]2C(=O)O)cc1 (racemic) [Example 26, (1RS, 2RS, 3SR)-1-(3,4-Dimethoxyphenyl)-3-(4-methoxyphenyl)indane-2-carboxylic acid]"
13,124 to 127 °C,"COc1ccc([C@@H]2c3ccc(O)cc3[C@H](c3ccc4c(c3)OCO4)[C@H]2C(=O)O)cc1 (racemic) [Example 81, (1RS, 2SR, 3SR)-5-Hydroxy-3-(3,4-methylenedioxyphenyl)-1-(4-methoxyphenyl)indane-2-carboxylic acid]"
14,126 to 127 °C,"C=CCc1cc(OC)ccc1[C@H]1c2cc(OCCC)ccc2[C@@H](c2ccc3c(c2)OCO3)[C@@H]1C(=O)O (racemic) [Example 60, (1RS, 2SR, 3SR)-3-[4-Methoxy-2-(prop-2-en-1-yl)phenyl]-1-(3,4-methylenedioxyphenyl)-5-(prop-1-yloxy)indane-2-carboxylic acid]"
15,97 to 98 °C,"CCCOc1ccc2c(c1)[C@H](c1ccccc1O)[C@@H](C(=O)O)[C@@H]2c1ccc2c(c1)OCO2 (racemic) [Example 36, (1RS, 2SR, 3RS)-3-(2-Hydroxyphenyl)-1-(3,4-methylenedioxyphenyl)-5-(prop-1-yloxy)indane-2-carboxylic acid]"
16,164 to 166 °C,"COc1ccc([C@@H]2c3ccccc3[C@H](c3ccccc3)[C@H]2C(=O)O)cc1 (racemic) [Example 1, (1RS,2RS,3SR)-1-(4-Methoxyphenyl)-3-phenylindane-2-carboxylic acid]"
17,220 to 222 °C (dec.),"O=C(O)C1[C@H](c2ccccc2)c2ccccc2[C@H]1c1ccccc1 (racemic) (as salt: sodium) [Example 21, (1RS, 3RS)-1,3-Diphenylindane-2-carboxylic acid]"
18,179 to 180 °C,"CCCOc1ccc2c(c1)[C@H](c1ccccc1OCCC)[C@@H](C(=O)O)[C@@H]2c1ccc2c(c1)OCO2 (racemic) [Example 35, (1RS, 2SR, 3RS)-1-(3,4-Methylenedioxyphenyl)-3-[2-(prop-1-yloxy)phenyl]-5-(prop-1-yloxy)indane-2-carboxylic acid]"
19,201 to 206 °C,"CCCOc1cccc2c1[C@@H](c1ccc3c(c1)OCO3)[C@@H](C(=O)O)[C@H]2c1ccc(OC)cc1OCC(=O)O (racemic) [Example 91, (1RS, 2RS, 3RS)-1-(2-Carboxymethoxy-4-methoxyphenyl]-3-(3,4-methylenedioxyphenyl)-4-(prop-1-yloxy)indane-2-carboxylic acid]"
20,131 to 133 °C,"COc1cccc([C@@H]2c3ccccc3[C@H](c3ccc4c(c3)OCO4)[C@H]2C(=O)O)c1 (racemic) [Example 5, (1RS, 2SR, 3SR)-1-(3-Methoxyphenyl)-3-(3,4-methylenedioxyphenyl)indane-2-carboxylic acid]"
21,194 to 196 °C,"CCCOc1ccc2c(c1)[C@H](c1ccc(OCC)cc1OCC(=O)O)[C@@H](C(=O)O)[C@@H]2c1ccc2c(c1)OCO2 (racemic) [Example 96, (1RS, 2SR, 3RS)-3-(2-Carboxymethoxy-4-ethyloxyphenyl)-1-(3,4-methylenedioxyphenyl)-5-(prop-1-yloxy)indane-2-carboxylic acid]"
